Measurements reported in US20230085307A1, “PYRIDAZINONE COMPOUND AND HERBICIDE” (NISSAN CHEMICAL CORPORATION, priority 2019, published 2023).

Columns and labels:
late watergrass = assay: Test Example 1: herbicidal activity, application before weed generation under submerged conditions (Table 16, symbol A); assay type: in vivo, late watergrass (Echinochloa oryzicola); details: 320 g/ha applied herbicide
Method in brief: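 Emulsion formulation, water-diluted to set dose, was put onto the flooded surface (4 cm depth, alluvial soil) the same day weeds were sown and 2.5-leaf rice transplanted. After 3 weeks at 25-30 °C under glass, each species was rated 0 (≤5% kill) to 5 (≥90% kill).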

Japanese bulrush = assay: Test Example 2: herbicidal activity, application during weed generation under submerged conditions (Table 17, symbol B); assay type: in vivo, Japanese bulrush (Schoenoplectus juncoides); details: AAH 320 g/ha; application during weed generation, submerged conditions
Method in brief: (§1)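 In this pot test, flooded alluvial soil (water depth 4 cm) holds all three species sown as a mixture. Once seedlings have one to two leaves, the compound's emulsion, thinned with water to the intended dose, is poured on the water; grading follows after three weeks on the earlier criteria.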

oval-leafed pondweed = assay: Test Example 2: herbicidal activity, application during weed generation under submerged conditions (Table 17, symbol C); assay type: in vivo, oval-leafed pondweed (Monochoria vaginalis); details: AAH 320 g/ha; application during weed generation, submerged conditions
Method in brief: as §1

rice flat sedge = assay: Test Example 3: herbicidal effect by foliage application, Wagner pot (Table 18, symbol E); assay type: in vivo, rice flat sedge (Cyperus iria); details: 320 g/ha
Method in brief: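 Plants were sown in alluvial soil held under 0.1–0.5 cm standing water and grown 14 days in a greenhouse at 25–30 °C. An emulsifiable formulation, water-diluted to the set dose, was then sprayed onto the foliage, and effects were scored three weeks later using previously defined criteria.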

southern crabgrass [1] = assay: Test Example 4: herbicidal effect by soil treatment (Table 19, symbol F); assay type: in vivo, southern crabgrass (Digitaria ciliaris); details: 320 g/ha
Method in brief: (§2)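 Three weeks of greenhouse growth at 25° C. to 30° C. followed a uniform surface spray of water-diluted emulsion at a predetermined herbicide amount. Seeds had been sown beforehand under about 1.5 cm of sterilized diluvial soil. Grading followed criteria set out in an earlier test.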

green foxtail [2] = assay: Test Example 4: herbicidal effect by soil treatment (Table 19, symbol G); assay type: in vivo, green foxtail (Setaria viridis); details: 320 g/ha
Method in brief: as §2

blackgrass = assay: Test Example 4: herbicidal effect by soil treatment (Table 19, symbol J); assay type: in vivo, blackgrass (Alopecurus myosuroides); details: 320 g/ha
Method in brief: as §2

Italian ryegrass = assay: Test Example 4: herbicidal effect by soil treatment (Table 19, symbol K); assay type: in vivo, Italian ryegrass (Lolium multiflorum); details: 320 g/ha
Method in brief: as §2

redroot pigweed = assay: Test Example 4: herbicidal effect by soil treatment (Table 19, symbol N); assay type: in vivo, redroot pigweed (Amaranthus retroflexus); details: 320 g/ha
Method in brief: as §2

chickweed = assay: Test Example 4: herbicidal effect by soil treatment (Table 19, symbol P); assay type: in vivo, common chickweed (Stellaria media); details: 320 g/ha
Method in brief: as §2

southern crabgrass [3] = assay: Test Example 5: herbicidal effect by foliage application, plastic box (Table 20, symbol F); assay type: in vivo, southern crabgrass (Digitaria ciliaris); details: foliage application, 320 g/ha, 3 weeks after application
Method in brief: (§3)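 Plants sown in sterilized diluvial soil and grown 14 days in a greenhouse at 25° C to 30° C, then sprayed on the foliage with the compound's emulsion diluted in water to a predetermined herbicide amount. Injury to weeds and crops scored three weeks after application on a visual rating scale.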

green foxtail [4] = assay: Test Example 5: herbicidal effect by foliage application, plastic box (Table 20, symbol G); assay type: in vivo, green foxtail (Setaria viridis); details: foliage application, 320 g/ha, 3 weeks after application
Method in brief: as §3

wild oat = assay: Test Example 5: herbicidal effect by foliage application, plastic box (Table 20, symbol I); assay type: in vivo, wild oat (Avena fatua); details: foliage application, 320 g/ha, 3 weeks after application
Method in brief: as §3

windgrass = assay: Test Example 5: herbicidal effect by foliage application, plastic box (Table 20, symbol L); assay type: in vivo, windgrass (Apera spica-venti); details: foliage application, 320 g/ha, 3 weeks after application
Method in brief: as §3

persian speedwell = assay: Test Example 5: herbicidal effect by foliage application, plastic box (Table 20, symbol R); assay type: in vivo, Persian speedwell (Veronica persica); details: foliage application, 320 g/ha, 3 weeks after application
Method in brief: as §3

CCOc1ccc(-c2sc3ccc(F)cc3c2-c2c(O)c(C)nn(C)c2=O)cc1 [2-030]
Herbicidal effect on A: late watergrass (grade 0-5) (late watergrass): 3 (Herbicidal rate of 40% or more and less than 70%) | herbicidal effect rating, B: Japanese bulrush (Japanese bulrush): 2 (Herbicidal rate of 20% or more and less than 40%) | herbicidal effect rating, C: oval-leafed pondweed (oval-leafed pondweed): 0 (Herbicidal rate of 5% or less (almost no effect)) | herbicidal effect on E (rice flat sedge), rating 0-5 (rice flat sedge): 5 (Herbicidal rate of 90% or more (almost completely withered)) | herbicidal effect rating, F: southern crabgrass (southern crabgrass [1]): 0 (Herbicidal rate of 5% or less (almost no effect)) | herbicidal effect rating, G: green foxtail (green foxtail [2]): 0 (Herbicidal rate of 5% or less (almost no effect)) | herbicidal effect rating, J: blackgrass (blackgrass): 0 (Herbicidal rate of 5% or less (almost no effect)) | herbicidal effect rating, K: Italian ryegrass (Italian ryegrass): 0 (Herbicidal rate of 5% or less (almost no effect)) | herbicidal effect rating, N: redroot pigweed (redroot pigweed): 4 (Herbicidal rate of 70% or more and less than 90%) | herbicidal effect rating, P: chickweed (chickweed): 3 (Herbicidal rate of 40% or more and less than 70%) | effect on southern crabgrass (F) (southern crabgrass [3]): 3 (Herbicidal rate of 40% or more and less than 70%) | effect on green foxtail (G) (green foxtail [4]): 2 (Herbicidal rate of 20% or more and less than 40%) | effect on wild oat (I) (wild oat): 0 (Herbicidal rate of 5% or less (almost no effect)) | effect on windgrass (L) (windgrass): 3 (Herbicidal rate of 40% or more and less than 70%) | effect on persian speedwell (R) (persian speedwell): 5 (Herbicidal rate of 90% or more (almost completely withered))

CCCOc1ccc(-c2sc3ccc(F)cc3c2-c2c(OC(=O)CCC)c(C)nn(C)c2=O)cc1 [2-033]
Herbicidal effect on A: late watergrass (grade 0-5) (late watergrass): 4 (Herbicidal rate of 70% or more and less than 90%) | herbicidal effect rating, B: Japanese bulrush (Japanese bulrush): 4 (Herbicidal rate of 70% or more and less than 90%) | herbicidal effect rating, C: oval-leafed pondweed (oval-leafed pondweed): 4 (Herbicidal rate of 70% or more and less than 90%) | herbicidal effect on E (rice flat sedge), rating 0-5 (rice flat sedge): 5 (Herbicidal rate of 90% or more (almost completely withered)) | herbicidal effect rating, F: southern crabgrass (southern crabgrass [1]): 0 (Herbicidal rate of 5% or less (almost no effect)) | herbicidal effect rating, G: green foxtail (green foxtail [2]): 0 (Herbicidal rate of 5% or less (almost no effect)) | herbicidal effect rating, J: blackgrass (blackgrass): 0 (Herbicidal rate of 5% or less (almost no effect)) | herbicidal effect rating, K: Italian ryegrass (Italian ryegrass): 0 (Herbicidal rate of 5% or less (almost no effect)) | herbicidal effect rating, N: redroot pigweed (redroot pigweed): 5 (Herbicidal rate of 90% or more (almost completely withered)) | herbicidal effect rating, P: chickweed (chickweed): 4 (Herbicidal rate of 70% or more and less than 90%) | effect on southern crabgrass (F) (southern crabgrass [3]): 2 (Herbicidal rate of 20% or more and less than 40%) | effect on green foxtail (G) (green foxtail [4]): 5 (Herbicidal rate of 90% or more (almost completely withered)) | effect on wild oat (I) (wild oat): 0 (Herbicidal rate of 5% or less (almost no effect)) | effect on windgrass (L) (windgrass): 0 (Herbicidal rate of 5% or less (almost no effect)) | effect on persian speedwell (R) (persian speedwell): 5 (Herbicidal rate of 90% or more (almost completely withered))

CCCC(=O)Oc1c(C)nn(C)c(=O)c1-c1c(-c2ccc(Cl)cc2)sc2ccc(F)cc12 [2-011]
Herbicidal effect on A: late watergrass (grade 0-5) (late watergrass): 3 (Herbicidal rate of 40% or more and less than 70%) | herbicidal effect rating, B: Japanese bulrush (Japanese bulrush): 3 (Herbicidal rate of 40% or more and less than 70%) | herbicidal effect rating, C: oval-leafed pondweed (oval-leafed pondweed): 3 (Herbicidal rate of 40% or more and less than 70%) | herbicidal effect on E (rice flat sedge), rating 0-5 (rice flat sedge): 5 (Herbicidal rate of 90% or more (almost completely withered)) | herbicidal effect rating, F: southern crabgrass (southern crabgrass [1]): 3 (Herbicidal rate of 40% or more and less than 70%) | herbicidal effect rating, G: green foxtail (green foxtail [2]): 2 (Herbicidal rate of 20% or more and less than 40%) | herbicidal effect rating, J: blackgrass (blackgrass): 0 (Herbicidal rate of 5% or less (almost no effect)) | herbicidal effect rating, K: Italian ryegrass (Italian ryegrass): 5 (Herbicidal rate of 90% or more (almost completely withered)) | herbicidal effect rating, N: redroot pigweed (redroot pigweed): 4 (Herbicidal rate of 70% or more and less than 90%) | herbicidal effect rating, P: chickweed (chickweed): 2 (Herbicidal rate of 20% or more and less than 40%) | effect on southern crabgrass (F) (southern crabgrass [3]): 4 (Herbicidal rate of 70% or more and less than 90%) | effect on green foxtail (G) (green foxtail [4]): 5 (Herbicidal rate of 90% or more (almost completely withered)) | effect on wild oat (I) (wild oat): 3 (Herbicidal rate of 40% or more and less than 70%) | effect on windgrass (L) (windgrass): 3 (Herbicidal rate of 40% or more and less than 70%) | effect on persian speedwell (R) (persian speedwell): 5 (Herbicidal rate of 90% or more (almost completely withered))

CCCC(=O)Oc1c(C)nn(C)c(=O)c1-c1c(-c2ccc(OC(C)C)cc2)sc2ccc(F)cc12 [2-035]
Herbicidal effect on A: late watergrass (grade 0-5) (late watergrass): 5 (Herbicidal rate of 90% or more (almost completely withered)) | herbicidal effect rating, B: Japanese bulrush (Japanese bulrush): 4 (Herbicidal rate of 70% or more and less than 90%) | herbicidal effect rating, C: oval-leafed pondweed (oval-leafed pondweed): 4 (Herbicidal rate of 70% or more and less than 90%) | herbicidal effect on E (rice flat sedge), rating 0-5 (rice flat sedge): 5 (Herbicidal rate of 90% or more (almost completely withered)) | herbicidal effect rating, F: southern crabgrass (southern crabgrass [1]): 3 (Herbicidal rate of 40% or more and less than 70%) | herbicidal effect rating, G: green foxtail (green foxtail [2]): 3 (Herbicidal rate of 40% or more and less than 70%) | herbicidal effect rating, J: blackgrass (blackgrass): 0 (Herbicidal rate of 5% or less (almost no effect)) | herbicidal effect rating, K: Italian ryegrass (Italian ryegrass): 0 (Herbicidal rate of 5% or less (almost no effect)) | herbicidal effect rating, N: redroot pigweed (redroot pigweed): 5 (Herbicidal rate of 90% or more (almost completely withered)) | herbicidal effect rating, P: chickweed (chickweed): 3 (Herbicidal rate of 40% or more and less than 70%) | effect on southern crabgrass (F) (southern crabgrass [3]): 2 (Herbicidal rate of 20% or more and less than 40%) | effect on green foxtail (G) (green foxtail [4]): 4 (Herbicidal rate of 70% or more and less than 90%) | effect on wild oat (I) (wild oat): 0 (Herbicidal rate of 5% or less (almost no effect)) | effect on windgrass (L) (windgrass): 0 (Herbicidal rate of 5% or less (almost no effect)) | effect on persian speedwell (R) (persian speedwell): 5 (Herbicidal rate of 90% or more (almost completely withered))

CCCCCOc1ccc(-c2sc3ccc(F)cc3c2-c2c(OC(=O)CCC)c(C)nn(C)c2=O)cc1 [2-038]
Herbicidal effect on A: late watergrass (grade 0-5) (late watergrass): 3 (Herbicidal rate of 40% or more and less than 70%) | herbicidal effect rating, B: Japanese bulrush (Japanese bulrush): 0 (Herbicidal rate of 5% or less (almost no effect)) | herbicidal effect rating, C: oval-leafed pondweed (oval-leafed pondweed): 0 (Herbicidal rate of 5% or less (almost no effect)) | herbicidal effect on E (rice flat sedge), rating 0-5 (rice flat sedge): 4 (Herbicidal rate of 70% or more and less than 90%) | herbicidal effect rating, F: southern crabgrass (southern crabgrass [1]): 0 (Herbicidal rate of 5% or less (almost no effect)) | herbicidal effect rating, G: green foxtail (green foxtail [2]): 0 (Herbicidal rate of 5% or less (almost no effect)) | herbicidal effect rating, J: blackgrass (blackgrass): 0 (Herbicidal rate of 5% or less (almost no effect)) | herbicidal effect rating, K: Italian ryegrass (Italian ryegrass): 0 (Herbicidal rate of 5% or less (almost no effect)) | herbicidal effect rating, N: redroot pigweed (redroot pigweed): 3 (Herbicidal rate of 40% or more and less than 70%) | herbicidal effect rating, P: chickweed (chickweed): 1 (Herbicidal rate of 5% or more and less than 20%) | effect on southern crabgrass (F) (southern crabgrass [3]): 0 (Herbicidal rate of 5% or less (almost no effect)) | effect on green foxtail (G) (green foxtail [4]): 1 (Herbicidal rate of 5% or more and less than 20%) | effect on wild oat (I) (wild oat): 0 (Herbicidal rate of 5% or less (almost no effect)) | effect on windgrass (L) (windgrass): 0 (Herbicidal rate of 5% or less (almost no effect)) | effect on persian speedwell (R) (persian speedwell): 5 (Herbicidal rate of 90% or more (almost completely withered))
